This note sets out measurements from patent US20250115598A1 (Anaxis Pharma Pty Ltd, priority 2021, published 2025).

The target in one assay is human RIPK3 (Homo sapiens (Human), UniProt Q9Y572). Nature of the assay: KINOMEscan binding assay, human RIPK3. The conditions noted are these: Table 21. The procedure:
(§1) Binding affinity of the test compounds for human MLKL (full length), mouse MLKL (full length), human RIPK1 and human RIPK3 was determined using the KINOMEscan™ technology developed by DiscoverX (USA; http://www.discoverx.com). The assay was conducted according to manufacturer instructions.
(§2) Kinase assays. For most assays, kinase-tagged T7 phage strains were grown in parallel in 24-well blocks in an E. coli host derived from the BL21 strain. E. coli were grown to log-phase and infected with T7 phage from a frozen stock (multiplicity of infection=0.4) and incubated with shaking at 32° C. until lysis (90-150 minutes). The lysates were centrifuged (6,000×g) and filtered (0.2 μm) to remove cell debris. The remaining kinases were produced in HEK-293 cells and subsequently tagged with DNA for qPCR detection. […] The liganded beads were blocked with excess biotin and washed with blocking buffer (SeaBlock (Pierce), 1% BSA, 0.05% Tween 20, 1 mM DTT) to remove unbound ligand and to reduce non-specific phage binding. […] All reactions were performed in polypropylene 384-well plates in a final volume of 20 μL. […] The kinase concentration in the eluates was measured by qPCR.
(§3) An 11-point 3-fold serial dilution of each test compound was prepared in 100% DMSO at 100× final test concentration and subsequently diluted to 1× in the assay (final DMSO concentration=1%). Most Kos were determined using a compound top concentration=30,000 nM.
(§4) KD for each test compound was calculated with a standard dose-response curve using the Hill equation (equation (1)): […]
(§5) The Hill Slope was set to −1.
(§6) Curves were fitted using a non-linear least square fit with the Levenberg-Marquardt algorithm.

For a further assay, the target named is human RIPK1 (Homo sapiens (Human), UniProt Q13546). Nature of the assay: KINOMEscan binding assay, human RIPK1. Conditions: Table 21. As to the method:
as §1, §2, §3, §4, §5, §6

In general, Kd refers to the concentration at which binding is half-saturated. Low values mean higher affinity, high ones lower affinity.

Chain of human RIPK1 (Q13546 whole entry): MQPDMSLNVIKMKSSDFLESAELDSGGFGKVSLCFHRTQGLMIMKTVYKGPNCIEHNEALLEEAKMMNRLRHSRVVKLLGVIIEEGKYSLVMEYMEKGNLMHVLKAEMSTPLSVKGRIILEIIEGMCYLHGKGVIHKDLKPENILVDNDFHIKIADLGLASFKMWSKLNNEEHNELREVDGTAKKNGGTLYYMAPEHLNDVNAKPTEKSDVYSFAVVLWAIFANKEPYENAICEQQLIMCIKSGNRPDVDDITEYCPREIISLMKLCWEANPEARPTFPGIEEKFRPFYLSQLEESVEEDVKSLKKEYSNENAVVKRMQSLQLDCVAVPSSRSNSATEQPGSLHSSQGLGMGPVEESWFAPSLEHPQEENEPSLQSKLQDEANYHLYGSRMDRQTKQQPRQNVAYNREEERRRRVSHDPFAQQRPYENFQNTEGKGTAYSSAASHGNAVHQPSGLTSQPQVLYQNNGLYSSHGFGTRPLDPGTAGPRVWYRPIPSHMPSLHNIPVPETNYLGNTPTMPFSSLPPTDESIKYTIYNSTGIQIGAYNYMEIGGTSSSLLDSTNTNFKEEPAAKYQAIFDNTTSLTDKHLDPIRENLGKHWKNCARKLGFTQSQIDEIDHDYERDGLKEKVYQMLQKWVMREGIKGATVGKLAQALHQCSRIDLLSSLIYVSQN
Chain of human RIPK3 (Q9Y572 whole entry): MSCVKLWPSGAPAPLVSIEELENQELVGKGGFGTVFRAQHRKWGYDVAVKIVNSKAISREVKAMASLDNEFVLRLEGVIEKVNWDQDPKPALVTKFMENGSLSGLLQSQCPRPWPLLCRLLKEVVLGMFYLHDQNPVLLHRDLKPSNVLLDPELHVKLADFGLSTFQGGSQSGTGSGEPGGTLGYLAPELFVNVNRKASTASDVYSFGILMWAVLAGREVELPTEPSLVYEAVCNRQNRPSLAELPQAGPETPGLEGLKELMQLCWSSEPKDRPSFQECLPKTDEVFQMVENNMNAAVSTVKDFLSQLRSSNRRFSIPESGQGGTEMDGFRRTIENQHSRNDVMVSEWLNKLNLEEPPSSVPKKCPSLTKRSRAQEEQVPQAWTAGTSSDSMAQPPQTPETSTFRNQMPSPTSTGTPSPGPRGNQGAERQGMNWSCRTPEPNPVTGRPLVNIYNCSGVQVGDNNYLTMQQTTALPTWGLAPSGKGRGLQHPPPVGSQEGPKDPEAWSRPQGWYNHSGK

For `CCS(=O)(=O)Nc1ccc(-c2ncn3ccnc(N)c23)cc1OCc1ccc(F)cc1` [Compound 63, N-(4-(8-Aminoimidazo[1,5-a]pyrazin-1-yl)-2-((4-fluorophenyl)methoxy)phenyl) ethane-1-sulfonamide], the Kd on human RIPK3 and at human RIPK1 was over 10 µM each time.
Turning to `Nc1n[nH]c2ccnc(-c3ccc(NS(=O)(=O)C(F)F)c(OCc4ccc(F)cc4)c3)c12` [Compound 68, N-(4-(3-amino-1H-pyrazolo[4,3-c]pyridin-4-yl)-2-((4-fluorophenyl)methoxy)phenyl)-1,1-difluoromethanesulfonamide], the Kd at human RIPK3 and at human RIPK1 was over 10 µM throughout.
Consider `CCS(=O)(=O)Nc1ccc(-c2nn(C)c3c(NC(C)=O)cnc(N)c23)cc1OCc1ccc(F)cc1` [Compound 2, N-(4-amino-3-(4-(ethylsulfonamido)-3-((4-fluorobenzyl)oxy)phenyl)-1-methyl-1H-pyrazolo[4,3-c]pyridin-7-yl)acetamide], for which the Kd on human RIPK3 and at human RIPK1 was over 10 µM each time.
Take `Cn1nc(-c2ccc(NS(=O)(=O)C(F)F)c(OCc3ccc(F)cc3)c2)c2c(N)nccc21` [Compound 10, N-(4-{4-amino-1-methyl-1H-pyrazolo[4,3-c]pyridin-3-yl}-2-[(4-fluorophenyl)methoxy]phenyl)-1,1-difluoromethanesulfonamide]: the dissociation constant Kd on human RIPK3 and at human RIPK1 was over 10 µM in each case.
In the case of `C[C@H](Oc1cc(-c2nn(C)c3c(-c4cnn5c4CN(C)CC5)cnc(N)c23)ccc1NS(=O)(=O)C(F)F)c1ccc(F)cc1` [Compound 91, (S)—N-(4-(4-amino-1-methyl-7-(5-methyl-4,5,6,7-tetrahydropyrazolo[1,5-a]pyrazin-3-yl)-1H-pyrazolo[4,3-c]pyridin-3-yl)-2-(1-(4-fluorophenyl)ethoxy)phenyl)-1,1-difluoromethanesulfonamide], the Kd on human RIPK3 and at human RIPK1 was over 10 µM each time.
Consider `C[C@H](Oc1cc(-c2nn(C)c3c(-c4cnn(C5CC6(C5)CN(C)C6)c4)cnc(N)c23)ccc1NS(=O)(=O)C(F)F)c1ccc(F)cc1` [Compound 99, (S)-N-(4-(4-amino-1-methyl-7-(1-(2-methyl-2-azaspiro[3.3]heptan-6-yl)-1H-pyrazol-4-yl)-1H-pyrazolo[4,3-c]pyridin-3-yl)-2-(1-(4-fluorophenyl)eth-oxy)phenyl)-1,1-difluoromethane-sulfonamide], for which the Kd on human RIPK3 and on human RIPK1 was over 10 µM in each case.
In the case of `C[C@H](Oc1cc(-c2nn(C)c3c(-c4cnn(C5CCN(C)C6(CC6)C5)c4)cnc(N)c23)ccc1NS(=O)(=O)C(F)F)c1ccc(F)cc1` (stereo partly drawn) [Compound 145, N-(4-(4-amino-1-methyl-7-(1-(4-methyl-4-azaspiro[2.5]octan-7-yl)-1H-pyrazol-4-yl)-1H-pyrazolo[4,3-c]pyridin-3-yl)-2-((S)-1-(4-fluorophenyl)ethoxy)phenyl)-1,1-difluoromethanesulfonamide], the Kd at human RIPK3 and on human RIPK1 was over 10 µM in each case.
Turning to `C[C@H](Oc1cc(-c2nn(C)c3c(-c4cnn(CC5CCCN5)c4)cnc(N)c23)ccc1NS(=O)(=O)C(F)F)c1ccc(F)cc1` (stereo partly drawn) [Compound 88, N-(4-(4-amino-1-methyl-7-(1-(pyrrolidin-2-ylmethyl)-1H-pyrazol-4-yl)-1H-pyrazolo[4,3-c]pyridin-3-yl)-2-((S)-1-(4-fluorophenyl)ethoxy)phenyl)-1,1-difluoromethane-sulfonamide], the Kd at human RIPK3 and on human RIPK1 was over 10 µM in each case.
As to `C[C@H](Oc1cc(-c2nn(C)c3c(-c4ccc(Cl)cc4)cnc(N)c23)ccc1NS(=O)(=O)C(F)F)c1ccc(F)cc1` [Compound 87, (S)-N-(4-(4-amino-7-(4-chlorophenyl)-1-methyl-1H-pyrazolo[4,3-c]pyridin-3-yl)-2-(1-(4-fluorophenyl)ethoxy)phenyl)-1,1-difluoromethanesulfonamide], the Kd at human RIPK3 and at human RIPK1 was over 10 µM in each case.
Turning to `C[C@H](Oc1cc(-c2nn(C)c3c(-c4cccc(Cl)c4)cnc(N)c23)ccc1NS(=O)(=O)C(F)F)c1ccc(F)cc1` [Compound 84, (S)-N-(4-(4-amino-7-(3-chlorophenyl)-1-methyl-1H-pyrazolo[4,3-c]pyridin-3-yl)-2-(1-(4-fluorophenyl)ethoxy)phenyl)-1,1-difluoromethanesulfonamide], the Kd at human RIPK3 and on human RIPK1 was over 10 µM throughout.
On to `Cn1nc(-c2ccc(NS(=O)(=O)C(F)F)c(OC3(c4ccc(F)cc4)CC3)c2)c2c(N)ncc(-c3cnn(C4CCOCC4)c3)c21` [Compound 140, N-(4-(4-amino-1-methyl-7-(1-(tetrahydro-2H-pyran-4-yl)-1H-pyrazol-4-yl)-1H-pyrazolo[4,3-c]pyridin-3-yl)-2-(1-(4-fluorophenyl)cyclopropoxy)phenyl)-1,1-difluoromethane-sulfonamide], for which the Kd at human RIPK3 and at human RIPK1 was over 10 µM in each case.
For `C[C@H](Oc1cc(-c2nn(C)c3c(-c4cnc(N5CCCC5)nc4)cnc(N)c23)ccc1NS(=O)(=O)C(F)F)c1ccc(F)cc1` [Compound 114, (S)-N-(4-(4-amino-1-methyl-7-(2-(pyrrolidin-1-yl)pyrimidin-5-yl)-1H-pyrazolo[4,3-c]pyridin-3-yl)-2-(1-(4-fluorophenyl)ethoxy)phenyl)-1,1-difluoromethanesulfonamide], the Kd on human RIPK3 and on human RIPK1 was over 10 µM in each case.
Turning to `C[C@H](Oc1cc(-c2nn(C)c3c(-c4cnn(C5CCOCC5)c4)cnc(N)c23)ccc1NS(=O)(=O)N(C)C)c1ccc(F)cc1` [Compound 124], the Kd on human RIPK3 and at human RIPK1 was over 10 µM in each case.
`C[C@H](Oc1cc(-c2nn(C)c3c(-c4ccn(C)c4)cnc(N)c23)ccc1NS(=O)(=O)C(F)F)c1ccc(F)cc1` [Compound 126, (S)-N-(4-(4-amino-1-methyl-7-(1-methyl-1H-pyrrol-3-yl)-1H-pyrazolo[4,3-c]pyridin-3-yl)-2-(1-(4-fluorophenyl)ethoxy)phenyl)-1,1-difluoromethanesulfonamide]: the Kd at human RIPK3 and on human RIPK1 was over 10 µM each time.
Turning to `C[C@H](Oc1cc(-c2nn(C)c3c(-c4cnn(CC(F)(F)F)c4)cnc(N)c23)ccc1NS(=O)(=O)C(F)F)c1ccc(F)cc1` [Compound 116, (S)-N-(4-(4-amino-1-methyl-7-(1-(2,2,2-trifluoroethyl)-1H-pyrazol-4-yl)-1H-pyrazolo[4,3-c]pyridin-3-yl)-2-(1-(4-fluorophenyl)ethoxy)phenyl)-1,1-difluoromethanesulfonamide], the Kd on human RIPK3 and on human RIPK1 was over 10 µM in each case.
In the case of `Cc1nn(C2CCN(C)C(C)(C)C2)cc1-c1cnc(N)c2c(-c3ccc(NS(=O)(=O)C(F)F)c(O[C@@H](C)c4ccc(F)cc4)c3)nn(C)c12` (stereo partly drawn) [Compound 156, N-(4-(4-amino-1-methyl-7-(3-methyl-1-(1,2,2-trimethylpiperidin-4-yl)-1H-pyrazol-4-yl)-1H-pyrazolo[4,3-c]pyridin-3-yl)-2-((S)-1-(4-fluorophenyl)ethoxy)phenyl)-1,1-difluoromethanesulfonamide], the Kd at human RIPK3 and on human RIPK1 was over 10 µM each time.
Regarding `C[C@H](Oc1cc(-c2nn(C)c3c(-c4ccc(N5CCOCC5)nc4)cnc(N)c23)ccc1NS(=O)(=O)C(F)F)c1ccc(F)cc1` [Compound 115, (S)-N-(4-(4-amino-1-methyl-7-(6-morpholinopyridin-3-yl)-1H-pyrazolo[4,3-c]pyridin-3-yl)-2-(1-(4-fluorophenyl)ethoxy)phenyl)-1,1-difluoromethanesulfonamide], the Kd on human RIPK3 and on human RIPK1 was over 10 µM in each case.
With `C[C@H](Oc1cc(-c2nn(C)c3c(-c4cnn(C5CCCNCC5)c4)cnc(N)c23)ccc1NS(=O)(=O)C(F)F)c1ccc(F)cc1` (stereo partly drawn) [Compound 74, N-(4-(4-amino-7-(1-(azepan-4-yl)-1H-pyrazol-4-yl)-1-methyl-1H-pyrazolo[4,3-c]pyridin-3-yl)-2-((S)-1-(4-fluorophenyl)ethoxy)phenyl)-1,1-difluoromethane-sulfonamide], the dissociation constant Kd on human RIPK3 and at human RIPK1 was over 10 µM throughout.
As to `C[C@H](Oc1cc(-c2nn(C)c3c(-c4ccnc(C(F)F)c4)cnc(N)c23)ccc1NS(=O)(=O)C(F)F)c1ccc(F)cc1` [Compound 57, (S)-N-(4-(4-amino-7-(2-(difluoromethyl)pyridin-4-yl)-1-methyl-1H-pyrazolo[4,3-c]pyridin-3-yl)-2-(1-(4-fluorophenyl)ethoxy)phenyl)-1,1-difluoromethanesulfonamide], the Kd at human RIPK3 is 0.1 to 10 µM; on human RIPK1, over 10 µM.
`C[C@H](Oc1cc(-c2nn(C)c3c(Cc4ccccc4)cnc(N)c23)ccc1NS(=O)(=O)C(F)F)c1ccc(F)cc1` [Compound 34, (S)-N-(4-(4-amino-7-benzyl-1-methyl-1H-pyrazolo[4,3-c]pyridin-3-yl)-2-(1-(4-fluorophenyl)ethoxy)phenyl)-1,1-difluoromethanesulfonamide]: the Kd on human RIPK3 and on human RIPK1 was over 10 µM throughout.
